From patent publication US20260345555A1, “Compositions and Methods for Protecting Salivary Glands from Off-Target Radiation Damage” (University of Rochester, priority 2022, published 2026)
Structures can show the parent of a compound that is named as a salt.

Test system: Reduced glutathione in salivary gland cell clusters (SGm)
Assay: Glutathione assay in salivary gland tissue chip, 4 days post-radiation (15 Gy); also first screen of Selleck library at 100 μM
Type: cell-based, mouse
Details: first screen of Selleck library at 100 μM, 15 Gy, 4 days post-radiation
Text: A salivary gland tissue chip was leveraged for high-content drug screening to identify novel radioprotective compounds (Song Y et al., Commun Biol., 2021, 4). The chip platform consists of an array of near-spherical microbubble (MB) cavities formed in poly(dimethylsiloxane) (PDMS). Each chip, containing ~50 MBs, affixed within wells of a 96-well plate (FIG. 1C). Primary salivary gland cell clusters (FIG. 1A), suspended in a poly(ethylene glycol) (PEG) hydrogel precursor and MMP-degradable peptide crosslinker solution together with the photoinitiator LAP, were applied to the chip allowing the clusters to deposit into the MBs (FIG. 1D). In situ polymerization of the hydrogel was achieved using long-wave, low intensity UV light. Over time, the cell clusters aggregate and proliferate to form SGm (FIG. 1C).
The glutathione assay was used to measure glutathione levels at various time points post-radiation to determine the optimal time point for detecting differences between 0 Gy and 15 Gy. Based on the data, the greatest signal separation was measured at 4 days post-irradiation (FIG. 9). This timepoint is similar to previous reports on decreases in glutathione post-radiation and was used for all experiments moving forward (Meeks L et al., Physiological Genomics, 2021, 53: 85-98).
The dose response to WR-1065 was examined to determine effective concentrations of WR-1065 to prevent the reduction of glutathione levels post-radiation. A SGm tissue chip was cultured for 4 days to allow spheres to form. The chip was then treated with WR-1065 30 minutes before and during radiation, followed by drug wash out with media 30 minutes post-radiation (FIG. 2A). This dosing scheme is consistent with the use of Amifostine clinically and with previous work. The glutathione assay was performed at 4 days post-radiation (FIG. 2A). […] Moreover, it is clinically relevant as 15-30 minutes before radiation, patients are administered Amifostine intravenously at 200 mg/m (Escobar A et al., IntechOpen, 2019, pp. 15-37; Eisbruch A, J Clin Oncol, 2011, 29: 119-121; Bardet, E. et al. Semin Oncol, 2002, 29, 57-60). Assuming an average adult body surface area of 17,000 cm^2 and a blood volume of 1.35 gallons (5.1 liters), Amifostine is administered at 300 μM (Mosteller, R. D. N Engl J Med 317, 1098 (1987)).
The glutathione and senescence assays were used to screen a library of FDA-approved drugs (Selleck Chemicals) at 100 μM. Drugs were first screened using the glutathione assay according to the timeline depicted in FIG. 2A. Any compound resulting in statistically similar glutathione levels compared to 0 Gy control was considered a hit (FIG. 4, grey circles). Hits with the glutathione assay were then tested with the senescence assay and considered a “double hit” if senescence levels were statistically similar to levels at 0 Gy (FIG. 4, black circles). […] While this hit rate is higher than many other drug screening reports (0.1-0.3%), this may be due to the statistical rigor afforded by the tissue chip format (Blanchard, C et al., Antimicrob Agents Chemother 2016, 60, 862-872; Colquhoun, J. M et al., Antibiotics (Basel) 2019, 8, 48). Additionally, phenotypic screens generally have higher hit rates than target-based screens (>1%) (Moffat, J. G et al., Nature Reviews Drug Discovery 2017, 16, 531-543; Rottman, M et al., Science 2010, 329, 1175-1180).
Mice were euthanized and the submandibular glands (SMG) were removed and chopped with a razor blade for 5 min. The tissue was then incubated in Hank's buffered salt solution (HBSS) containing 15 mM HEPES, 50 U/mL collagenase type II (Thermo Fischer 17101015), and 100 U/mL hyaluronidase (Sigma Aldrich H3506) at 37 °C for 30 min. Cells were centrifuged, then resuspended in HBSS with 15 mM HEPES and passed through 100 μm and 20 μm mesh filters to isolate clusters between 20-100 μm. The digestion protocol produces cell cluster sizes evenly distributed between 20 to 100 μm (Song, Y et al., Advanced Healthcare Materials). […]

Compound | Glutathione normalized mean intensity
CC(=O)[C@H]1CC[C@H]2[C@@H]3CC=C4C[C@@H](O)CC[C@]4(C)[C@H]3CC[C@]12C [Pregnenolone] | 0.6057
CCC1(c2ccccc2)C(=O)NCNC1=O [Primidone (Mysoline)] | 0.8725
CCCOc1ccc(C(=O)OCCN(CC)CC)cc1N [Proparacaine HCl] | 0.7045
CCCc1cc(C(N)=S)ccn1 [Protionamide (Prothionamide)] | 0.6328
CCOC(=O)[C@H](CCc1ccccc1)N[C@@H](C)C(=O)N1[C@H](C(=O)O)C[C@@H]2CCC[C@@H]21 [Ramipril (Altace)] | 0.7145
CNC(=C[N+](=O)[O-])NCCSCc1ccc(CN(C)C)o1 [Ranitidine (Zantac)] | 0.4295
COc1ccccc1OCC(O)CN1CCN(CC(=O)Nc2c(C)cccc2C)CC1 (stereo not shown) [Ranolazine (Ranexa)] | 0.5015
CO[C@H]1/C=C/O[C@@]2(C)Oc3c(C)c(O)c4c(O)c(c5c(nc6cc(C)ccn65)c4c3C2=O)NC(=O)/C(C)=C\C=C\[C@H](C)[C@H](O)[C@@H](C)[C@@H](O)[C@@H](C)[C@H](OC(C)=O)[C@@H]1C [Rifaximin (Xifaxan)] | 0.3977
CC(N)C12CC3CC(CC(C3)C1)C2 (stereo not shown) [Rimantadine (Flumadine)] | 0.3987
O=P(O)(O)C(O)(Cc1cccnc1)P(=O)(O)O [Risedronic acid (Actonel)] | 0.6565
CC(=O)OCC(=O)NCCCOc1cccc(CN2CCCCC2)c1 [Roxatidine acetate HCl] | 0.4245
CCC(C)(C)C(=O)O[C@H]1C[C@@H](C)C=C2C=C[C@H](C)[C@H](CC[C@@H]3C[C@@H](O)CC(=O)O3)[C@H]21 [Simvastatin (Zocor)] | 0.1568
C[C@@H]1CN(c2c(F)c(N)c3c(=O)c(C(=O)O)cn(C4CC4)c3c2F)C[C@H](C)N1 [Sparfloxacin] | 0.7607
CC1(C)[C@H](C(=O)O)N2C(=O)C[C@H]2S1(=O)=O [Sulbactam] | 0.6491
Cc1nnc(NS(=O)(=O)c2ccc(N)cc2)s1 [Sulfamethizole (Proklar)] | 0.4719
Cc1cc(NS(=O)(=O)c2ccc(N)cc2)no1 [Sulfamethoxazole] | 0.8442
COc1cc(NS(=O)(=O)c2ccc(N)cc2)nc(OC)n1 [Sulphadimethoxine] | 0.8846
COc1cc([C@@H]2c3cc4c(cc3[C@@H](O[C@@H]3O[C@@H]5CO[C@@H](c6cccs6)O[C@H]5[C@H](O)[C@H]3O)[C@H]3COC(=O)[C@H]23)OCO4)cc(OC)c1O [Teniposide (Vumon)] | 0.4095
Clc1ccc(C(Cn2ccnc2)OCc2ccsc2Cl)c(Cl)c1 (stereo not shown) [Tioconazole] | 0.6333
Cc1c(Cl)cccc1Nc1ccccc1C(=O)O [Tolfenamic acid] | 0.8008
NCC1CCC(C(=O)O)CC1 (stereo not shown) [Tranexamic acid (Transamin)] | 0.7568
O=c1[nH]c(=O)n([C@H]2C[C@H](O)[C@@H](CO)O2)cc1C(F)(F)F [Trifluridine (Viroptic)] | 0.7468
CN1[C@@H]2CC[C@H]1C[C@@H](OC(=O)c1c[nH]c3ccccc13)C2 [Tropisetron] | 0.5993
CC(C)[C@H](N)C(=O)OCCOCn1cnc2c(=O)[nH]c(N)nc21 [Valaciclovir HCl] | 0.6362
CCCCC(=O)N(Cc1ccc(-c2ccccc2-c2nn[nH]n2)cc1)[C@H](C(=O)O)C(C)C [Valsartan (Diovan)] | 0.6351
Nc1ncnc2c1ncn2[C@@H]1O[C@H](CO)[C@@H](O)[C@@H]1O [Vidarabine (Vira-A)] | 0.3742
Bacitracin zinc | 0.6175
Vitamin B12 | 0.7029
